Patent publication US7962204B2 (priority 2001, dated 2011)

System: behaviorally-diagnosed psychiatric conditions (DSM categories)
Parameters: species or system human
Settings: in vivo
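Throughout, for use code of agent in 301.7 Antisocial Personality Disorder: N marks novel agent found effective in subject subgroups.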
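Throughout, for use code of agent in 301.83 Borderline Personality Disorder: N marks novel agent found effective in subject subgroups.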
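Throughout, for use in 307.50 Eating Disorder NOS: N marks novel agent found effective in subject subgroups.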
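Throughout, for use in 307.51 Bulimia Nervosa: N marks novel agent found effective in subject subgroups.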
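Throughout, for use in 313.81 Oppositional Defiant Disorder: N marks novel agent found effective in subject subgroups.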

NC12CC3CC(CC(C3)C1)C2 [AMANTADINE]
N: use code of agent in 312.30 Impulse-Control Disorder NOS | use code of agent in 312.8 Conduct Disorder | use code of agent in 313.81 Oppositional Defiant Disorder | use code of agent in 315.9 Learning Disorder NOS | use code of agent in Attention-Deficit/Hyperactivity Disorder

CC(NC(C)(C)C)C(=O)c1cccc(Cl)c1 (stereo not shown) [BUPROPRION (LONG ACTING)]
N: use code of agent in 301.20 Schizoid Personality Disorder | use code of agent in 301.22 Schizotypal Personality Disorder | use code of agent in 301.4 Obsessive-Compulsive Personality Disorder | use code of agent in 301.50 Histrionic Personality Disorder | use code of agent in 301.6 Dependent Personality Disorder | use code of agent in 301.7 Antisocial Personality Disorder | use code of agent in 301.82 Avoidant Personality Disorder | use code of agent in 301.83 Borderline Personality Disorder | use code of agent in 302.71 Hypoactive Sexual Desire Disorder | use code of agent in 307.42 Primary Insomnia | use code of agent in 311 Depressive Disorder NOS | use code of agent in 316 Psychological Factors Affecting Medical Condition, Atypical Asthma | use code of agent in 316 Psychological Factors Affecting Medical Condition, Neurodermatitis | use code of agent in Bipolar I Disorder | use in 294.8 Amnestic Disorder | use in 294.9 Cognitive Disorder NOS | use in 296.89 Bipolar II Disorder | use in 299.80 Pervasive Developmental Disorder NOS | use in 300.00 Anxiety Disorder NOS | use in 300.02 Generalized Anxiety Disorder | use in 300.22 Agoraphobia Without History of Panic Disorder | use in 300.23 Social Phobia | use in 300.29 Specific Phobia | use in 300.3 Obsessive-Compulsive Disorder | use in 301.13 Cyclothymic Disorder | use in 307.1 Anorexia Nervosa | use in 307.50 Eating Disorder NOS | use in 307.51 Bulimia Nervosa | use in 307.9 Communication Disorder NOS | use in 309.21 Separation Anxiety Disorder | use in 309.81 Posttraumatic Stress Disorder | use in 312.30 Impulse-Control Disorder NOS | use in 312.31 Pathological Gambling | use in 312.34 Intermittent Explosive Disorder | use in 312.39 Trichotillomania | use in 312.8 Conduct Disorder | use in 313.81 Oppositional Defiant Disorder | use in 315.9 Learning Disorder NOS | use in Attention-Deficit/Hyperactivity Disorder | use in Panic Disorder | use of the agent in the diagnostic category (C = common use; N = novel use from rEEG features)

CC(NC(C)(C)C)C(=O)c1cccc(Cl)c1 (stereo not shown) [BUPROPRION (REGULAR TABS)]
N: use code of agent in 301.20 Schizoid Personality Disorder | use code of agent in 301.22 Schizotypal Personality Disorder | use code of agent in 301.4 Obsessive-Compulsive Personality Disorder | use code of agent in 301.50 Histrionic Personality Disorder | use code of agent in 301.6 Dependent Personality Disorder | use code of agent in 301.7 Antisocial Personality Disorder | use code of agent in 301.82 Avoidant Personality Disorder | use code of agent in 301.83 Borderline Personality Disorder | use code of agent in 302.71 Hypoactive Sexual Desire Disorder | use code of agent in 307.42 Primary Insomnia | use code of agent in 311 Depressive Disorder NOS | use code of agent in 316 Psychological Factors Affecting Medical Condition, Atypical Asthma | use code of agent in 316 Psychological Factors Affecting Medical Condition, Neurodermatitis | use code of agent in Bipolar I Disorder | use in 294.8 Amnestic Disorder | use in 294.9 Cognitive Disorder NOS | use in 296.89 Bipolar II Disorder | use in 299.80 Pervasive Developmental Disorder NOS | use in 300.00 Anxiety Disorder NOS | use in 300.02 Generalized Anxiety Disorder | use in 300.22 Agoraphobia Without History of Panic Disorder | use in 300.23 Social Phobia | use in 300.29 Specific Phobia | use in 300.3 Obsessive-Compulsive Disorder | use in 301.13 Cyclothymic Disorder | use in 307.1 Anorexia Nervosa | use in 307.50 Eating Disorder NOS | use in 307.51 Bulimia Nervosa | use in 307.9 Communication Disorder NOS | use in 309.21 Separation Anxiety Disorder | use in 309.81 Posttraumatic Stress Disorder | use in 312.30 Impulse-Control Disorder NOS | use in 312.31 Pathological Gambling | use in 312.34 Intermittent Explosive Disorder | use in 312.39 Trichotillomania | use in 312.8 Conduct Disorder | use in 313.81 Oppositional Defiant Disorder | use in 315.9 Learning Disorder NOS | use in Attention-Deficit/Hyperactivity Disorder | use in Panic Disorder | use of the agent in the diagnostic category (C = common use; N = novel use from rEEG features)

Clc1cccc(Cl)c1N=C1NCCN1 [CLONIDINE]
N: use code of agent in 316 Psychological Factors Affecting Medical Condition, Hypertensive Disorder NOS

C[C@H](N)Cc1ccccc1 [DEXEDRINE]
N: use code of agent in 294.9 Cognitive Disorder NOS | use code of agent in 296.90 Mood Disorder NOS | use code of agent in 300.4 Dysthymic Disorder | use code of agent in 301.13 Cyclothymic Disorder | use code of agent in 307.1 Anorexia Nervosa | use code of agent in 307.50 Eating Disorder NOS | use code of agent in 307.51 Bulimia Nervosa | use code of agent in 312.30 Impulse-Control Disorder NOS | use code of agent in 312.31 Pathological Gambling | use code of agent in 312.39 Trichotillomania | use code of agent in 312.8 Conduct Disorder | use code of agent in 313.81 Oppositional Defiant Disorder | use code of agent in 315.9 Learning Disorder NOS

Nc1nnc(-c2cccc(Cl)c2Cl)c(N)n1 [LAMOTRIGINE]
N: use in Dementia of the Alzheimer's Type

CN[C@@H](C)Cc1ccccc1 [METHAMPHETAMINE]
N: use code of agent in 294.9 Cognitive Disorder NOS | use code of agent in 296.90 Mood Disorder NOS | use code of agent in 300.4 Dysthymic Disorder | use code of agent in 301.13 Cyclothymic Disorder | use code of agent in 307.1 Anorexia Nervosa | use code of agent in 307.51 Bulimia Nervosa | use code of agent in 312.30 Impulse-Control Disorder NOS | use code of agent in 312.31 Pathological Gambling | use code of agent in 312.39 Trichotillomania | use code of agent in 312.8 Conduct Disorder | use code of agent in 313.81 Oppositional Defiant Disorder | use code of agent in 315.9 Learning Disorder NOS

COC(=O)C(c1ccccc1)C1CCCCN1 (stereo not shown) [METHYLPHENIDATE]
N: use code of agent in 294.9 Cognitive Disorder NOS | use code of agent in 296.90 Mood Disorder NOS | use code of agent in 300.4 Dysthymic Disorder | use code of agent in 301.13 Cyclothymic Disorder | use code of agent in 307.1 Anorexia Nervosa | use code of agent in 307.50 Eating Disorder NOS | use code of agent in 307.51 Bulimia Nervosa | use code of agent in 312.30 Impulse-Control Disorder NOS | use code of agent in 312.31 Pathological Gambling | use code of agent in 312.39 Trichotillomania | use code of agent in 312.8 Conduct Disorder | use code of agent in 313.81 Oppositional Defiant Disorder | use code of agent in 315.9 Learning Disorder NOS
